Results as given in publication PMC12454639, “Direct disassembly of α-syn preformed fibrils into α-syn monomers by an all-D-peptide” (NPJ Parkinson's Disease, 2025).
Entries after “also recorded” stand apart in the source; their conditions may differ. Square brackets hold non-standard residues; d marks the D form. Peptide text beside a SMILES is read from it.

How the values were obtained:
[1] = Solubility of D-peptides; conditions: PBS pH 7.4, 1 h at 37 °C, 20,800×g centrifugation, UV–vis absorption; lyophilized chloride salt
[2] = test system: small α-syn PFF seeds; assay: AFM analysis of small α-syn PFF seeds; assay type: biochemical; conditions: 400 and 1600 nM SVD-1a, 3 days at 37 °C, PBS pH 7.4
Procedure: Fig. 4 SVD-1a disassembles small α-syn PFF seeds into α-syn monomers. Small α-syn PFF seeds were prepared as described previously. […] A and B Time-dependent DLS measurements with 200 nM small α-syn PFF seeds in the absence (A) and presence (B) of 500 nM SVD-1a. 1 ml sample was continuously measured in a sealed quartz cuvette at 37 °C under quiescent conditions every 60 s for 72 h in a SpectroSize 300 instrument (XtalConcepts, GE). Data are shown as a radius plot where the signal amplitude of each particle size is represented by the data point diameter. C One-phase exponential decay fit of “200 nM PFF + 500 nM SVD-1a” shown in (B). […] PFF and monomer samples that were incubated without SVD-1a served as controls. α-Syn was detected with the antibody Syn211. […] In the upper part of the blot, above the marker range, PFFs were detected, using a longer exposure time due to a weaker signal (see Supplementary Fig. 11 for the whole blot image with different exposure times). F Size-based fractionation by centrifugal concentration followed by ELISA quantification. […] After incubation, the samples were fractioned using a 100 kDa MWCO centrifugal concentrator (Merck, Microcon DNA Fast Flow 100 MWCO). α-Syn content of flow through (red) and retentate (blue) was quantified using an α-syn specific ELISA (BioLegend, Human α-Synuclein (Colorimetric), 448607). […]

[3] = test system: α-syn monomer; assay: CD secondary structure analysis of de novo aggregation; assay type: biochemical; conditions: 10 µM α-syn + 20 µM SVD-1a (two-fold molar excess), 7 days
Procedure: Fig. 7 De novo aggregation analysis of α-syn in the presence and absence of SVD-1a. A De novo ThT assay of 10 µM α-syn with and without 20 µM SVD-1a. ThT fluorescence progression was measured in a 96-well non-binding half-area plate (Corning, USA) with a FLUOStar plate reader (BMG labtech, GE) at λex = 448 nm and λem = 482 nm with 300 rpm continuous orbital shaking between reads. For induction of aggregation, one borosilicate bead per well was added (d = 3 mm, Hilgenberg, GE). Data are shown as mean values with ±SD (n = 5). B CD secondary structure analysis of de novo aggregation samples. Samples were incubated as described in (A) without added ThT (n = 3) and subsequently pooled for CD analysis. Far-UV ellipticity of the samples was measured in a quartz cuvette (l = 10 mm) in a J-1100 CD-spectrometer (Jasco, GE). In addition to (A), a sample with 20 µM SVD-1a alone was incubated under identical conditions and later used as a reference for the sample with α-syn and SVD-1a. For this sample (α-syn + SVD-1a (after incubation)), the SVD-1a reference subtracted CD spectrum is shown. […] D α-Syn in the flow through (MWCO < 100 kDa) was quantified using an α-syn specific ELISA (BioLegend, Human α-Synuclein (Colorimetric), 448607, n = 3). E Retentate and flow-through samples were analyzed using SDS–PAGE with silver staining. […]

[4] = test system: α-synA53T–YFP cells (HEK293T)

CC[C@@H](C)[C@@H](NC(=O)[C@@H](Cc1c[nH]cn1)NC(=O)[C@@H](CCC(=O)O)NC(=O)[C@@H](CCC(N)=O)NC(=O)[C@@H](Cc1c[nH]c2ccccc12)NC(=O)[C@@H](Cc1ccc(O)cc1)NC(=O)[C@H](NC(=O)[C@@H](CCC(=O)O)NC(=O)[C@@H](Cc1c[nH]cn1)NC(=O)[C@H](NC(=O)[C@H]1CCCN1C(=O)[C@@H](CCSC)NC(=O)[C@H](N)CCCCN)[C@H](C)O)[C@H](C)O)C(=O)N[C@H](Cc1c[nH]c2ccccc12)C(=O)N[C@H](Cc1c[nH]cn1)C(=O)N[C@H](C)C(N)=O [SVD-1] (H-[dK][dM][dP][dT][dH][dE][dT][dY][dW][dQ][dE][dH][dI][dW][dH][dA]-NH2)
concentration completely retained in supernatant [1]: at least 1 mM

CC[C@@H](C)[C@@H](NC(=O)[C@@H](Cc1c[nH]cn1)NC(=O)[C@@H](CCC(=O)O)NC(=O)[C@@H](CCC(N)=O)NC(=O)[C@@H](Cc1c[nH]c2ccccc12)NC(=O)[C@@H](Cc1ccc(O)cc1)NC(=O)[C@H](NC(=O)[C@@H](CCC(=O)O)NC(=O)[C@@H](Cc1c[nH]cn1)NC(=O)[C@H](NC(=O)[C@H]1CCCN1C(=O)[C@@H](CC(C)C)NC(=O)[C@H](N)CCCNC(=N)N)[C@H](C)O)[C@H](C)O)C(=O)N[C@H](Cc1c[nH]c2ccccc12)C(=O)N[C@H](Cc1c[nH]cn1)C(=O)N[C@H](C)C(=O)N[C@H](CCCNC(=N)N)C(=O)N[C@H](CCCNC(=N)N)C(=O)N[C@H](CCCNC(=N)N)C(=O)N[C@H](CCCNC(=N)N)C(=O)N[C@H](CCCNC(=N)N)C(N)=O [SVD-1a] (H-[dR][dL][dP][dT][dH][dE][dT][dY][dW][dQ][dE][dH][dI][dW][dH][dA][dR][dR][dR][dR][dR]-NH2)
small α-syn PFF particle number [2]: decrease in small α-syn PFF particle number | α-syn secondary structure after de novo aggregation (CD) [3]: no spectrum shift towards a beta-sheet spectrum was observed; also recorded: fully stabilizes monomeric α-syn in its random coil secondary structure after 7 days of incubation | cell viability, PFF-seeded α-synA53T–YFP cells [4]: did not induce significantly different luminescence in comparison to unseeded cells or seeded cells without peptide treatment
